# PubChem BioAssay (NCI)
#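 Interpolation was linear, between the two tested concentrations surrounding the appropriate level; five concentrations were tested over 48 hours in 96-well plates. Here, GI50 denotes the concentration required for 50% inhibition of growth. TGI marks complete inhibition of growth.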
# What was measured:
# Assay in all cases: NCI anticancer screen, dose series, 48 h
# [1] = test system: MALME-3M melanoma
# [2] = test system: SR leukemia
# [3] = test system: SK-MEL-28 melanoma
# [4] = test system: TK-10 renal
# [5] = test system: NCI-H226 lung
# [6] = test system: HOP-62 NSCLC
# [7] = test system: NCI-H522 lung
# [8] = test system: A498 renal
# [9] = test system: SF-268 CNS
# [10] = test system: HS 578T breast
Compound,TGI [1] [µM],TGI [2] [µM],TGI [3] [µM],TGI [4] [µM],TGI [5] [µM],TGI [6] [µM],TGI [7] [µM],TGI [8] [µM],TGI [9] [µM],TGI [10] [µM],GI50 [1] [µM],GI50 [3] [µM],GI50 [4] [µM],GI50 [10] [µM],GI50 [5] [µM],GI50 [6] [µM],GI50 [9] [µM],GI50 [7] [µM],GI50 [8] [µM],GI50 [2] [µM]
COC(=O)c1cc(=O)nc2cc3cccccc3n12,> 100,> 100,> 100,> 100,> 100,> 100,> 100,> 100,–,–,–,–,–,–,–,–,–,–,–,–
O=C1c2ccccc2C(=O)C12CCc1ccccc12,> 100,–,> 100,> 100,–,> 100,–,–,> 100,–,–,–,–,–,–,–,–,–,–,–
CC(/C=C/C(O)=C1/C(=O)CNC1=O)=C\[C@@H](C)[C@H]1O[C@@]2(C)O[C@H](C(=O)[C@@H]3O[C@@]32C)[C@@H]1C,38,–,38.7,44.2,54.4,43.1,–,29.1,43.9,52.1,–,–,–,–,–,–,–,–,–,–
O=C(CC1(O)C(=O)Nc2ccc(F)cc21)c1ccc(C(=O)NCC2CCC3(CC2)OOC2(CCCCC2)OO3)cc1 (configuration not stated),5.13,–,32.4,4.36,32.2,12.3,2.71,29.4,30.8,47.4,2.21,13.9,2.03,11.4,10.3,3.64,10.8,1.21,13.3,–
CC(=O)/C=C/c1ccc(Nc2c3ccccc3nc3occ(Cl)c23)cc1,24.9,–,> 100,24.8,21.7,61.3,16.1,–,17.5,> 100,6.48,15.1,3.87,5.75,4.87,19.5,3.16,3.43,–,–
COc1ccc(/C=C2\CCC(CCN(C)C)(C3=CCCC3)C2=O)cc1 (configuration not stated),32.6,88.5,35.1,30.7,38.5,36,31.2,34.8,40,–,–,–,–,–,–,–,–,–,–,–
CC(=O)OC(C(=O)[O][Sn]([CH3])([CH3])[CH3])c1ccccc1 (configuration not stated),> 100,> 100,> 100,> 100,> 100,> 100,62.6,> 100,> 100,–,> 100,> 100,> 100,–,> 100,> 100,> 100,19.9,> 100,> 100
CO[C@H]1/C=C/O[C@@]2(C)Oc3c(C)c(O)c4c(O)c(c(/C=N/N5CCN(C)CC5)c(O)c4c3C2=O)NC(=O)/C(C)=C\C=C\[C@H](C)[C@H](O)[C@@H](C)[C@@H](O)[C@@H](C)[C@H](OC(C)=O)[C@@H]1C,> 100,52.6,> 100,> 100,–,> 100,–,> 100,–,–,–,–,–,–,–,–,–,–,–,–
CC(C)(C)NCC(O)COc1c(Br)c(Br)c(Br)c2c1OC(C)(C)C2 (configuration not stated),3.24,3.29,3.29,3.52,–,3.7,3.81,3.33,3.38,–,1.71,1.81,2.04,–,–,1.89,1.73,1.99,1.85,1.66
COc1ccc(-c2c(C#N)c(N)nc(N3CCOCC3)c2C#N)cc1,54.7,–,> 100,86.1,> 100,70.4,43.6,30.1,> 100,64.4,11.7,33.9,19.6,17.5,26.3,14.8,32.3,8.65,7.36,–
CN(C)CCCOc1cccc(NC2=C(Cl)C(=O)C(Nc3cccc(OCCCN(C)C)c3)=C(Cl)C2=O)c1,1.36,–,3.16,2.12,14.1,3.68,0.437,3.01,3.47,5.4,0.592,1.71,0.831,2.11,5.85,1.93,1.7,0.172,1.59,–
N=c1c2ccccc2sc2nc3ccccc3n12,> 100,> 100,> 100,> 100,> 100,> 100,> 100,> 100,> 100,–,–,–,–,–,–,–,–,–,–,–
ClCc1cccc(Cn2cnc3c(Cl)nc(Cl)nc32)c1,4.47,> 100,5.38,3.95,–,4.38,5.32,6.53,6.64,–,2.02,2.34,1.74,–,3.24,2.29,2.5,2.72,2.42,2.49
COc1cc(OC)c2sc(-c3ccc(-n4cncc4-c4ccc(OC)c(OC)c4)cc3)nc2c1,> 100,> 100,> 100,> 100,> 100,> 100,76.9,> 100,> 100,–,59.9,> 100,31.7,–,6.44,35.5,9.96,5.27,2.15,3.03
CCOC(=O)C1Cc2ccc3c4c(ccc(c24)C1)CC(C(=O)OCC)C3,> 100,> 100,> 100,> 100,> 100,> 100,> 100,> 100,> 100,–,–,–,–,–,–,–,–,–,–,–
C=C(CN1CCc2c([nH]c3ccccc23)C1)c1ccc(C(=O)Nc2ccccc2N)cc1,–,50,16.1,9.58,10.1,20.8,11.5,–,10.8,23.3,–,2.25,2.6,4.75,1.32,4.08,2.89,4.13,–,0.622
CN(C)C(=S)/N=c1\ssc(=S)n1C,> 100,> 100,> 100,> 100,> 100,> 100,> 100,> 100,> 100,–,–,–,–,–,–,–,–,–,–,–
CC1=Nc2ccccc2SC(c2c(Cl)cccc2Cl)C1 (configuration not stated),3.29,–,2.69,3.89,3.05,3.76,2.23,3.74,2.73,–,–,–,–,–,–,–,–,–,–,–
COc1ccccc1-c1cc(=O)c2cc(C)c(C)c(C(=O)O)c2o1,> 100,–,> 100,> 100,–,> 100,> 100,> 100,> 100,–,–,–,–,–,–,–,–,–,–,–

Compound,TGI [1] [µM],TGI [2] [µM],TGI [3] [µM],TGI [4] [µM],TGI [5] [µM],TGI [6] [µM],TGI [7] [µM],TGI [8] [µM],TGI [9] [µM],TGI [10] [µM],GI50 [1] [µM],GI50 [3] [µM],GI50 [4] [µM],GI50 [10] [µM],GI50 [5] [µM],GI50 [6] [µM],GI50 [9] [µM],GI50 [7] [µM],GI50 [8] [µM],GI50 [2] [µM]
C[N+](C)(C)CC1CCCCC1=O (configuration not stated),38.6,–,31.6,> 100,> 100,> 100,36.2,–,–,–,–,–,–,–,–,–,–,–,–,–
Cc1cc(NCc2cc(Nc3ccnc4cc(Cl)ccc34)ccc2F)nc(N2CCOCC2)n1,–,–,–,3.92,5.61,–,4.39,6.89,18,6.97,–,–,1.96,2.07,1.89,–,3.08,1.84,1.46,–
CN/N=C(/c1nc2ccc([N+](=O)[O-])cc2[nH]c1=O)C(O)c1ccc(C(O)/C(=N\NC)c2nc3ccc([N+](=O)[O-])cc3[nH]c2=O)cc1 (configuration not stated),> 100,–,> 100,> 100,> 100,> 100,–,> 100,> 100,–,–,–,–,–,–,–,–,–,–,–
CC1CC2(S(=O)(=O)c3ccccc3)ON1CC2S(=O)(=O)c1ccccc1 (configuration not stated),> 100,> 100,> 100,> 100,> 100,> 100,> 100,–,> 100,–,–,–,–,–,–,–,–,–,–,–
O=C(NN1C(=O)CSC1c1cccc(Cl)c1)C(O)c1ccccc1 (configuration not stated),> 100,–,> 100,> 100,> 100,> 100,> 100,> 100,> 100,> 100,> 100,> 100,> 100,> 100,81,> 100,> 100,67.9,> 100,–
COc1cc2c(c3c1c(=O)c1ccccc1n3C)C=CC(C)(C)O2,> 100,39.5,> 100,> 100,> 100,> 100,50.7,–,> 100,–,–,–,–,–,–,–,–,–,–,–
CCOc1cccc2c1N[S@@](=O)S2,> 100,> 100,> 100,> 100,> 100,–,> 100,–,> 100,–,–,–,–,–,–,–,–,–,–,–
CCOc1ccc(N=C2NC(=O)C(CC(=O)Nc3ccccc3[N+](=O)[O-])S2)cc1 (configuration not stated),> 100,> 100,> 100,> 100,> 100,–,> 100,> 100,> 100,–,–,–,–,–,–,–,–,–,–,–
COc1ccc(/C=C(\NC(=O)c2ccccc2)c2nc3ccccc3[nH]2)cc1OC,> 100,> 100,> 100,> 100,> 100,> 100,> 100,> 100,> 100,–,–,–,–,–,–,–,–,–,–,–
C1=Cc2nc1c(-c1ccccc1)c1ccc([nH]1)c(-c1ccccc1)c1nc(c(-c3ccccc3)c3ccc([nH]3)c2-c2ccccc2)C=C1,> 100,> 100,> 100,> 100,> 100,> 100,> 100,> 100,> 100,–,–,–,–,–,–,–,–,–,–,–
CCCN(CCC)c1ccc(C=O)c(Cl)c1,> 69,–,68.9,1.17,0.322,64.9,82.2,0.289,> 91.5,> 96.8,23.4,20,0.262,22.9,0.152,13.3,33.9,25.2,0.141,–
COc1ccc(O)c(C(=O)CCC(=O)O)c1,> 100,> 100,> 100,> 100,> 100,> 10,> 100,> 100,> 100,–,–,–,–,–,–,–,–,–,–,–
Clc1ccccc1CN1COc2c(ccc3cccnc23)C1,16.3,–,14.9,23.2,19.4,7.25,4.53,22.1,13.5,–,–,–,–,–,–,–,–,–,–,–
COc1ccc(Nc2nc(Nc3cc(C)[nH]n3)c3cc(OC)c(OC)cc3n2)cc1,3.19,> 100,3.26,–,–,–,4.48,–,2.92,3.15,1.65,1.7,–,1.25,–,–,1.35,1.44,–,0.386
CCCC(=O)N[C@H]1CCc2cc(OC)c(OC)c(OC)c2-c2ccc(SC)c(=O)cc21,> 100,> 100,> 100,99.9,0.215,> 91.2,< 0.01,0.39,62.7,–,–,–,–,–,–,–,–,–,–,–
O=C(c1ccc2ccccc2c1)c1nc2cc(F)ccc2[n+]([O-])c1C(F)(F)F,32.9,–,30.3,92.2,46.5,> 100,29.8,> 100,38.1,56.9,17.3,15.9,28.5,21.9,22.2,34.4,18.5,13.6,43.7,–
COC(=O)C(=O)C(CC(=O)Nc1ccc(C)cc1)C(=O)OC (configuration not stated),> 100,> 100,> 100,> 100,> 100,> 100,> 100,–,> 100,–,–,–,–,–,–,–,–,–,–,–
C=C1C(=O)C23[C@H](O)C1CC[C@H]2[C@]12COC3(O)[C@@H](O)[C@@H]1C(C)(C)CC[C@@H]2O,6.94,34.9,12.9,31,–,36.1,1.9,22.7,18.3,–,–,–,–,–,–,–,–,–,–,–
CN(C)c1ccc(/C=C(\NC(=O)c2ccccc2)c2nc3ccc4c(c3[nH]2)C(=O)c2ccccc2C4=O)cc1,> 100,–,> 100,> 100,–,> 100,> 100,> 100,> 100,–,–,–,–,–,–,–,–,–,–,–
